{
  "source": "patent US9216992B2",
  "about": "“Thieno[3,2-c]pyridine potassium channel inhibitors” (Xention Limited, priority 2005, dated 2015)",
  "key": {"[1]": {"molecular_target": "T1, human Kv1.5 (Homo sapiens, UniProt P22460)", "T1 construct": "expressed in transfected cells; host or cells: stably transfected cells", "T1 sequence (P22460 whole entry)": "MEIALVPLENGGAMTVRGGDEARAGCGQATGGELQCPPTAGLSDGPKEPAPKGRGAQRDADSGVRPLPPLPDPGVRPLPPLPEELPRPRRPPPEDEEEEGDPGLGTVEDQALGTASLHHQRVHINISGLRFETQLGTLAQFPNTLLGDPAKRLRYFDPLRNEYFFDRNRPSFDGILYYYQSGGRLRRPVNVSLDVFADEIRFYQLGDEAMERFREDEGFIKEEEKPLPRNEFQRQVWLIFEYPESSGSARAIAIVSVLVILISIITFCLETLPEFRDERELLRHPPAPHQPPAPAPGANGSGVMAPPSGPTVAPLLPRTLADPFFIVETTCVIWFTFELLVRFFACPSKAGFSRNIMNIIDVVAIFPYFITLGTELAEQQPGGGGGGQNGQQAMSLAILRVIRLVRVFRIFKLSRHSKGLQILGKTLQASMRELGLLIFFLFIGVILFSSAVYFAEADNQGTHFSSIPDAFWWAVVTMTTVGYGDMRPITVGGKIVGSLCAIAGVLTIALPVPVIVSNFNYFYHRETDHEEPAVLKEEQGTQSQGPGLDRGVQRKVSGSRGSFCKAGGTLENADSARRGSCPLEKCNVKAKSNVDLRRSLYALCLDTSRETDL", "test": "Kv1.5 Autopatch Electrophysiology", "type": "cell-based", "details": "1 μM compound; CHO cells stably transfected with human Kv1.5; AutoPatch whole cell mode; room temperature; read-out: Kv 1.5% Inhibition at 1 μM", "description": "Kv1.5 Autopatch Electrophysiology Method\n(§1) Cells stably transfected with cDNA for human Kv1.5 (in pEF6::VA-His-TOPO) were grown in Ex-cell 302 serum-free medium for CHO cells, supplemented with 10 μl/ml [100×] glutamine, 5 μg/ml blasticidin and 1% HT supplement (50×, hypoxanthine and thymidine). Compounds were tested on these cells using the AutoPatch technology in whole cell mode.\nThe external bathing solution contained (in mM): 150 NaCl, 10 KCl, 1 MgCl2, 3 CaCl2, 10 HEPES, pH 7.4 with NaOH. Patch pipettes were filled with an electrode solution of composition (in mM): 160 KCl, 0.5 MgCl2, 10 HEPES, 1 EGTA, pH 7.4 with KOH.\n(§2) Compounds were dissolved in DMSO (100%) and made up in the external bather at a concentration of 1 μM. All experiments were conducted at room temperature (22-24° C.).\n(§3) A cell suspension (10 ml), with a density of 100,000 cells/ml, was aliquoted into a 15 ml centrifuge tube and transferred to an incubator (37° C., 5% CO2) for approximately one hour before use. Following 60 min incubation, a tube was taken and centrifuged at 1000 rpm for 4 mins at room temperature. 9.5 ml supernatant was thence discarded, leaving a cell pellet at the bottom of the tube. The pellet was then resuspended using 100 μl of cold (4° C.), filtered (0.22 μm), 0.2% BSA/bather solution (0.02 g BSA/10 ml bather). The bottom of the tube was manually agitated gently until the solution became cloudy with cells. The 100 μl cell resuspension solution was then stored on the bench at 4° C. (using a Peltier-based temperature control device) until used.\n(§4) A length of capillary glass (1B150F-4, WPI) was dipped into the cell suspension solution, such that ˜3 cm column of fluid was taken up by capillary action. A Ag/AgCl wire was dropped into the non-dipped end of the capillary also. The outside of the solution-filled end of the capillary was then dried and the capillary was loaded into the AutoPatch™. Borosilicate glass patch pipettes (from 1.5 mm OD, thin-walled filamented, GC150-TF capillary glass, Harvard) were pulled using a DMZ pipette puller (Zeitz Instruments), and were back-filled using the internal pipette solution, being careful that no bubbles remain at the tip or in the body of the pipette. Patch pipettes typically had resistances of 2.3-3.5 MΩ. Once filled, the pipette tip and a proportion of the shaft (˜15 mm) were dipped into Sigmacote (Sigma). The recording pipette was then loaded into the AutoPatch™. Automated patch-clamping was initiated by the operator, but thereafter AutoPatch.exe continued the experiment providing that pre-set conditions and criteria were satisfied.\n(§5) Whole cell patch-clamp recordings were made using the AutoPatch™ rig, which incorporated an EPC9 or EPC10 amplifier (HEKA, Germany) under control of Pulse software (v8.54 or v8.76, HEKA, Germany), a motion controller with 2 translators (Newport, UK), valve controller (VF1) and a c-level suction device all at room temperature (22-24° C.). This equipment was completely under the control of AutoPatch.exe and operator intervention was only made when there was a requirement to refill the drug reservoirs or to prevent the loss of a cell due to a technical error. Cells with an Rseries greater than 18 MΩ were discounted from the experiment.\n(§6) Qualification stages prior to perfusion and drug application ensured that the observed current met the criteria for the experiment. Only those cells with an IK>500 pA were used for experiments. Cells were continuously perfused with external solution at a flow rate of 1.8-2 ml/minute. […] Online analysis of the hKv1.5 current during the application of compounds was performed by the AutoPatch™ software. Voltage-step protocols and analysis of data was performed as described for conventional electrophysiology.\n(§7) Electrophysiology voltage-step protocols and analysis of data was performed as follows. Data was sampled at 5 kHz, and filtered with a −3 dB bandwidth of 2.5 kHz. Cells were held at a voltage of −80 mV. […]"}, "[2]": {"molecular_target": "T2, human Kv1.3 (Homo sapiens, UniProt P22001)", "T2 construct": "expressed in transfected cells; host or cells: stably transfected cells", "T2 sequence (P22001 whole entry)": "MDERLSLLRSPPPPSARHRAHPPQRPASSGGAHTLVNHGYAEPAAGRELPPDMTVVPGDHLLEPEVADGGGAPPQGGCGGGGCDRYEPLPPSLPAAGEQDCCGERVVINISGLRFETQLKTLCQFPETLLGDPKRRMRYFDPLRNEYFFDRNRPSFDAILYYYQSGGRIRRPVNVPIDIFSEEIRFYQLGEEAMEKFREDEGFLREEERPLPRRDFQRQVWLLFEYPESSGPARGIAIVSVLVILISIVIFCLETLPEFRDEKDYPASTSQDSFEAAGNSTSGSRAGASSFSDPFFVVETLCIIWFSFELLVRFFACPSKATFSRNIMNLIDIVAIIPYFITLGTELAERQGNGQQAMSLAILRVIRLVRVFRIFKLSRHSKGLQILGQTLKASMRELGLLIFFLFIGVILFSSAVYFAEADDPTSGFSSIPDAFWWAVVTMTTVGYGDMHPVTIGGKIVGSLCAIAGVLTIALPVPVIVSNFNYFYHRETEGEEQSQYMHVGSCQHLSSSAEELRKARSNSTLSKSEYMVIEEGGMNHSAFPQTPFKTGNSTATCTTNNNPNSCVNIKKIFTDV", "test": "Kv1.3 Autopatch Electrophysiology", "type": "cell-based", "details": "1 μM compound; CHO cells stably transfected with human Kv1.3; AutoPatch whole cell mode; room temperature; read-out: Kv 1.3% Inhibition at 1 μM", "description": "Kv1.3 Autopatch Electrophysiology Method\nas §1, with “human Kv1.3” for “human Kv1.5”, “(in pcDNA3.1)” for “(in pEF6::VA-His-TOPO)”, “glutamine, 500” for “glutamine, 5”, “μg/ml G418 ([…]),” for “μg/ml blasticidin”\nThe external bathing solution contained (in mM): 150 NaCl, 10 KCl, 1 MgCl2, 3 CaCl2, 10 HEPES, pH 7.4 with NaOH. Patch pipettes were filled with an electrode solution of composition (in mM): 100 K-Gluconate, 20 KCl, 1 MgCl2, 1 CaCl2, 10 HEPES, 11 EGTA, 5 ATP—Na2, 2 Glutathione pH 7.2 with KOH.\nas §2, §3, §4, §5\nas §6, with “IK>400” for “IK>500”, “hKv1.3” for “hKv1.5”\nas §7"}},
  "data": [
    {"smiles": "COc1cccc(-c2csc3ccnc(NCc4ccccc4)c23)c1", "note": "[Example 23, Benzyl-[3-(3-methoxy-phenyl)-thieno[3,2-c]pyridin-4-yl]-amine]", "values": [
      {"measurement": "inhibition at 1 µM", "setting": "[1]", "value": 79.6, "unit": "%"},
      {"measurement": "inhibition at 1 µM", "setting": "[2]", "value": 58, "unit": "%"}
    ]},
    {"smiles": "Cc1ccc(-c2csc3c(-c4ccccc4F)cnc(NCc4ccccc4)c23)cc1", "note": "[Example 43, Benzyl-[7-(2-fluoro-phenyl)-3-p-tolyl-thieno[3,2-c]pyridin-4-yl]-amine]", "values": [
      {"measurement": "inhibition at 1 µM", "setting": "[1]", "value": 26.3, "unit": "%"},
      {"measurement": "inhibition at 1 µM", "setting": "[2]", "value": 13.6, "unit": "%"}
    ]},
    {"smiles": "Fc1ccc(-c2csc3ccnc(NCc4ccccc4)c23)cc1", "note": "[Example 22, Benzyl-[3-(4-fluoro-phenyl)-thieno[3,2-c]pyridin-4-yl]-amine]", "values": [
      {"measurement": "inhibition at 1 µM", "setting": "[1]", "value": 90.2, "unit": "%"},
      {"measurement": "inhibition at 1 µM", "setting": "[2]", "value": 68.6, "unit": "%"}
    ]},
    {"smiles": "COc1cccc(-c2csc3ccnc(NCc4cccs4)c23)c1", "note": "[Example 13, [3-(3-Methoxy-phenyl)-thieno[3,2-c]pyridin-4-yl]-thiophen-2-ylmethyl-amine]", "values": [
      {"measurement": "inhibition at 1 µM", "setting": "[1]", "value": 89.4, "unit": "%"},
      {"measurement": "inhibition at 1 µM", "setting": "[2]", "value": 83.2, "unit": "%"}
    ]},
    {"smiles": "c1ccc(CNc2nccc3scc(-c4ccc5c(c4)OCO5)c23)cc1", "note": "[Example 25, (3-Benzo[1,3]dioxol-5-yl-thieno[3,2-c]pyridin-4-yl)-benzyl-amine]", "values": [
      {"measurement": "inhibition at 1 µM", "setting": "[1]", "value": 70.5, "unit": "%"},
      {"measurement": "inhibition at 1 µM", "setting": "[2]", "value": 58.1, "unit": "%"}
    ]},
    {"smiles": "Cc1ccc(-c2csc3c(-c4cccc(C(=O)O)c4)cnc(NCc4ccccc4)c23)cc1", "note": "[Example 38, 3-(4-Benzylamino-3-p-tolyl-thieno[3,2-c]pyridin-7-yl)-benzoic acid]", "values": [
      {"measurement": "inhibition at 1 µM", "setting": "[1]", "value": 84.8, "unit": "%"},
      {"measurement": "inhibition at 1 µM", "setting": "[2]", "value": 41.3, "unit": "%"}
    ]},
    {"smiles": "c1ccc(-c2csc3ccnc(NCc4ccc5c(c4)OCCO5)c23)cc1", "note": "[Example 18, (2,3-Dihydro-benzo[1,4]dioxin-6-ylmethyl)-(3-phenyl-thieno[3,2-c]pyridin-4-yl)-amine]", "values": [
      {"measurement": "inhibition at 1 µM", "setting": "[1]", "value": 85.3, "unit": "%"},
      {"measurement": "inhibition at 1 µM", "setting": "[2]", "value": 76.9, "unit": "%"}
    ]},
    {"smiles": "Cc1ccc(-c2csc3c(-c4ccccc4)cnc(NCc4ccccc4)c23)cc1", "note": "[Example 34, Benzyl-(7-phenyl-3-p-tolyl-thieno[3,2-c]pyridine-4-yl)-amine]", "values": [
      {"measurement": "inhibition at 1 µM", "setting": "[1]", "value": 25.6, "unit": "%"},
      {"measurement": "inhibition at 1 µM", "setting": "[2]", "value": 8.1, "unit": "%"}
    ]},
    {"smiles": "Cc1ccc(-c2csc3ccnc(NCc4ccco4)c23)cc1", "note": "[Example 29, Furan-2-ylmethyl-(3-p-tolyl-thieno[3,2-c]pyridin-4-yl)-amine]", "values": [
      {"measurement": "inhibition at 1 µM", "setting": "[1]", "value": 86.1, "unit": "%"},
      {"measurement": "inhibition at 1 µM", "setting": "[2]", "value": 66.2, "unit": "%"}
    ]}
  ]
}
